Results reported in patent publication US10335608B2, “Photodynamic compounds and methods for activating them using ionizing radiation and/or other electromagnetic radiation for therapy and/or diagnostics” (THERALASE TECHNOLOGIES, INC., priority 2016, dated 2019).

Columns and labels:
U87 cells = test: Presto Blue cell kill after light and/or X-ray PDT, U87 cells; type: cell-based, human; conditions: 20 μM
Procedure: The cells were incubated in complete DMEM media containing antibiotics and 10% FBS (resulting in 2.5 μM bovine Tf in the medium) and all the solutions were prepared in this media. The cells were loaded with TLD1433 or TLDOsH2IP (20-80 μM) for 4 hours at 37° C. Subsequently, a wash with complete medium was performed followed by irradiation with red (625 nm, 90 J cm^−2) or near infrared (808 nm, 600 J cm^−2) light, X-ray (5 Gy, 225 keV), X-ray followed by light or light followed by X-ray. Matched dark controls were used in parallel: incubation at ambient conditions (ambient air, room temperature) for a length of time corresponding to the irradiation session. After irradiation, the cells were returned to the incubator. After 21 hours, the viability of cells was determined by Presto Blue assay, and cell kill was calculated as percent of matched control. Pure PDT effect was calculated in the following way: Pure PDT effect (percent cell kill)=Total PDT percent cell kill−Light alone percent cell kill−Dark percent cell kill.

[1] = In vivo CT imaging of the photosensitizer after tail vein injection; conditions: rat, 1 mg/kg via tail vein, 5 min to 4 hours post administration
Procedure: For in vivo imaging of the photosensitizer, a rat was injected with 1 mg/kg of OsH2dppn via tail vein and imaged with a small animal CT scanner as a function of time post-systemic administration (5, 10, 30 min, 1, 2, 4 hours).

[2] = near infrared light (808 nm, 600 J cm^−2)

For `[Os+2].c1ccc2nc(-c3ccc4ccccc4n3)ccc2c1.c1ccc2nc(-c3ccc4ccccc4n3)ccc2c1.c1cnc2c(c1)c1nc[nH]c1c1cccnc12` [OsH2IP, [Os(biq)2(LL)] imidazo[4,5-f][1,10]phenanthroline], the “Dark cell kill (%)” value (U87 cells; no irradiation) was 5.1%, the “PDT cell kill (%)” value (U87 cells; Near Infrared & X-ray) was 31.5% and the “Pure PDT effect (% cell kill, in brackets)” value (U87 cells; Near Infrared & X-ray) was 17.0 % cell kill. The “Synergy in the pure PDT effect (% cell kill)” value (U87 cells; Near Infrared & X-ray) was −9.3 % cell kill, the “PDT cell kill (%)” value (U87 cells; X-ray & Near Infrared) was 50.0% and the “Pure PDT effect (% cell kill, in brackets)” value (U87 cells; X-ray & Near Infrared) was 39.6 % cell kill. For the same compound, the “Synergy in the pure PDT effect (% cell kill)” value (U87 cells; X-ray & Near Infrared) was 13.4 % cell kill, the “PDT cell kill (%)” value (U87 cells; X-ray (5 Gy, 225 KeV)) was 13.8% and the “Pure PDT effect (% cell kill, in brackets)” value (U87 cells; X-ray (5 Gy, 225 KeV)) was 6.8 % cell kill. For the same compound, the “PDT cell kill (%)” value (U87 cells; [2]) was 24.6% and the “Pure PDT effect (% cell kill, in brackets)” value (U87 cells; [2]) was 19.5 % cell kill.
With `[Os+2].c1ccc2cc3nc4c5cccnc5c5ncccc5c4nc3cc2c1.c1ccc2nc(-c3ccc4ccccc4n3)ccc2c1.c1ccc2nc(-c3ccc4ccccc4n3)ccc2c1` [OsH2dppn, [Os(biq)2(LL)] benzo[i]dipyrido-[3,2-a:2′,3′-c]phenazine] the “Distribution on CT images over time” value [1] was “presumably accumulating in the bladder over time”.
